Test results: PubChem BioAssay (NCI)
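Interpolation was linear, between the two tested concentrations surrounding the appropriate level; five concentrations were tested over 48 hours in 96-well plates. GI50 is the concentration that inhibits growth by half. The concentration for full growth arrest is given as TGI.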

Tests used:
Assay in all cases: DTP human tumour cell line panel, 48 h
HCC-2998 colon = system: HCC-2998 colon
LOX IMVI melanoma = system: LOX IMVI melanoma
SK-MEL-28 melanoma = system: SK-MEL-28 melanoma
COLO 205 colon = system: COLO 205 colon
MCF7 breast = system: MCF7 breast
SK-MEL-5 melanoma = system: SK-MEL-5 melanoma
NCI/ADR-RES ovarian = system: NCI/ADR-RES ovarian
KM12 colon = system: KM12 colon
U251 CNS = system: U251 CNS
A498 renal = system: A498 renal

Structure (SMILES)	GI50 (HCC-2998 colon)	GI50 (LOX IMVI melanoma)	TGI (LOX IMVI melanoma)	GI50 (SK-MEL-28 melanoma)	TGI (SK-MEL-28 melanoma)	GI50 (COLO 205 colon)	TGI (COLO 205 colon)	GI50 (MCF7 breast)	TGI (MCF7 breast)	GI50 (SK-MEL-5 melanoma)	TGI (SK-MEL-5 melanoma)	GI50 (NCI/ADR-RES ovarian)	TGI (NCI/ADR-RES ovarian)	GI50 (KM12 colon)	TGI (KM12 colon)	GI50 (U251 CNS)	TGI (U251 CNS)	GI50 (A498 renal)	TGI (A498 renal)	TGI (HCC-2998 colon)
CN(Cc1cnc2nc(N)nc(N)c2n1)c1ccc(C(=O)NC(CCC(=O)O)C(=O)O)cc1Br (centres undefined)	< 0.01 µM	< 0.01 µM	2.1 µM	0.23 µM	19.5 µM	< 0.0215 µM	17.4 µM	< 0.01 µM	> 100 µM	< 0.01 µM	4.51 µM	< 0.01 µM	> 100 µM	< 0.01 µM	11.6 µM	< 0.0134 µM	> 100 µM	< 0.01 µM	4.71 µM	
COc1cc(-c2nn(-c3cccc(NC(=O)c4ccc(Cl)c(C(F)(F)F)c4)c3)cc2-c2ccncc2)ccc1Cl	9.89 µM	1.92 µM	> 32.5 µM	3.09 µM	> 32.5 µM	3.5 µM	17.6 µM	1.82 µM	> 32.5 µM	1.13 µM	8.69 µM	1.18 µM	15 µM	1.6 µM	> 32.5 µM	2.39 µM	> 32.5 µM	1.02 µM	7.01 µM	> 32.5 µM
COc1ccc(N=N/C(C(=O)C(F)(F)F)=C(\O)c2ccc(Cl)cc2)cc1	4.01 µM	3.29 µM	21.5 µM	7.22 µM	> 100 µM	11.3 µM	25.1 µM	4.11 µM	37.6 µM	3.63 µM	14.3 µM	3.56 µM	23.2 µM	2.61 µM	38.7 µM	4.55 µM	27.8 µM	10.9 µM	23.8 µM	16.2 µM
COc1cc2cc(Oc3ccc(NC(=O)Nc4ccc(Cl)c(Cl)c4)cc3)c(C)nc2cc1OC	5.54 µM	3.45 µM	14.6 µM	3.77 µM	14.7 µM	2.75 µM	6.5 µM	2.89 µM	13.8 µM	2.58 µM	8.09 µM	2.6 µM	16.9 µM	3.22 µM	13.4 µM	2.19 µM	7.26 µM	1.95 µM	7.93 µM	> 100 µM
Cn1cc(C2=C(c3cn(CCCCCSC(=N)N)c4ccccc34)C(=O)NC2=O)c2ccccc21	3.56 µM	2.92 µM	6.48 µM	3.55 µM	7.17 µM	1.24 µM	4.68 µM	1.22 µM	4.97 µM	3.28 µM	6.67 µM	8.18 µM	21 µM	2.08 µM	5.41 µM	2.5 µM	5.65 µM	3.65 µM	6.97 µM	7.19 µM
C#CCOc1ccc2ncnc(Nc3ccc(NC(=O)C=C)cc3)c2c1	> 100 µM	3.92 µM	17.5 µM	23.6 µM	> 100 µM	15.6 µM	91.5 µM	2.98 µM	> 100 µM	> 100 µM	> 100 µM	> 100 µM	> 100 µM	34.6 µM	> 100 µM	79.3 µM	> 100 µM	> 100 µM	> 100 µM	> 100 µM
CSC(=Nc1ccccc1)/N=C(\SCc1ccccc1)N(C)C			0.383 µM		1.79 µM		1.58 µM		1.19 µM		2.92 µM		3.77 µM		2.76 µM		2.54 µM		5.27 µM	1.69 µM
CC[C@H](C)[C@H](NC(=O)CN(C)C)C(=O)N(C)[C@H](C[C@@H](OC(C)=O)c1nc(C(=O)NC23CC(C(=O)OC)(C2)C3)cs1)C(C)C	0.49 µM	0.276 µM	> 25 µM	3.06 µM	> 25 µM	0.144 µM	5.59 µM	0.11 µM	> 25 µM	0.572 µM	4 µM	> 21.4 µM	> 25 µM	0.478 µM	> 25 µM	0.417 µM	> 25 µM	1.47 µM	> 25 µM	> 25 µM
COc1ccc(N(C)c2nc(N)nc3sc4c(c23)CCCC4)cc1	< 0.0146 µM	< 0.01 µM	15.3 µM	4.3 µM	23.4 µM	0.021 µM	0.0573 µM	< 0.01 µM	14.8 µM	< 0.01 µM	0.505 µM	< 0.01 µM	14.4 µM	< 0.01 µM	12 µM	< 0.0114 µM	15 µM	< 0.01 µM	< 0.0209 µM	12 µM
Cc1cc(Cl)nc(N(CCCNc2ccnc3cc(Cl)ccc23)Cc2ccco2)n1	1.97 µM	2.07 µM	5.4 µM	2.38 µM	6.37 µM	1.43 µM	3.08 µM	1.81 µM	6.1 µM	1.54 µM	3.01 µM	1.76 µM	6.87 µM	2.79 µM	11.5 µM	2.07 µM	6.15 µM	1.55 µM	7.99 µM	5.67 µM
